Active and inactive are the calls of the source. The calls are words filed in the database; no cut-off is given here.
Legend:
Calf thymus DNA [1] = test: Binding affinity to calf thymus DNA at 1 x 10^-5 M after 30 mins by circular dichroism analysis; assay type: nucleic-acid assay; details: Bos taurus
Calf thymus DNA [2] = test: Binding affinity to calf thymus DNA at 1 x 10^-5 M by thermal denaturation assay; assay type: nucleic-acid assay; details: Bos taurus
Calf thymus DNA [3] = test: Binding affinity to calf thymus DNA at 1 x 10^-5 M by lectron spin resonance analysis; assay type: nucleic-acid assay; details: Bos taurus
[4] = target: T1, Bacterial DNA-directed RNA polymerase (Bacteria) (UniProt P0A8V2+P0A7Z4+P0A8T7+P0A800); test: Inhibition of Escherichia coli DNA-dependent RNA polymerase at 20 ug/ml using calf thymus DNA as primer; assay type: protein-complex assay
[5] = target: T1, Bacterial DNA-directed RNA polymerase (Bacteria); test: Inhibition of Escherichia coli DNA-dependent RNA polymerase at 20 ug/ml using Micrococcus luteus DNA as primer; assay type: protein-complex assay
[6] = target: T1, Bacterial DNA-directed RNA polymerase (Bacteria); test: Inhibition of Escherichia coli DNA-dependent RNA polymerase at 10 ug/ml using calf thymus DNA as primer; assay type: protein-complex assay
[7] = target: T1, Bacterial DNA-directed RNA polymerase (Bacteria); test: Inhibition of Escherichia coli DNA-dependent RNA polymerase at 10 ug/ml using Micrococcus luteus DNA as primer; assay type: protein-complex assay
[8] = target: T1, Bacterial DNA-directed RNA polymerase (Bacteria); test: Inhibition of Escherichia coli DNA-dependent RNA polymerase at 5 ug/ml using calf thymus DNA as primer; assay type: protein-complex assay
[9] = target: T1, Bacterial DNA-directed RNA polymerase (Bacteria); test: Inhibition of Escherichia coli DNA-dependent RNA polymerase at 5 ug/ml using Micrococcus luteus DNA as primer; assay type: protein-complex assay
[10] = target: T1, Bacterial DNA-directed RNA polymerase (Bacteria); test: Inhibition of Escherichia coli DNA-dependent RNA polymerase at 2.5 ug/ml using calf thymus DNA as primer; assay type: protein-complex assay
[11] = target: T1, Bacterial DNA-directed RNA polymerase (Bacteria); test: Inhibition of Escherichia coli DNA-dependent RNA polymerase at 2.5 ug/ml using Micrococcus luteus DNA as primer; assay type: protein-complex assay
L1210 [12] = test: Cytotoxicity against mouse L1210 cells at 10 ug/ml after 48 hrs; assay type: functional; details: L1210, 48 h
L1210 [13] = test: Cytotoxicity against mouse L1210 cells at 5 ug/ml after 48 hrs; assay type: functional; details: L1210, 48 h
L1210 [14] = test: Cytotoxicity against mouse L1210 cells at 1 ug/ml after 48 hrs; assay type: functional; details: L1210, 48 h
L1210 [15] = test: Cytotoxicity against mouse L1210 cells at 0.5 ug/ml after 48 hrs; assay type: functional; details: L1210, 48 h
L1210 [16] = test: Cytotoxicity against mouse L1210 cells at 0.1 ug/ml after 48 hrs; assay type: functional; details: L1210, 48 h
L1210 [17] = test: Cytotoxicity against mouse L1210 cells at 0.05 ug/ml after 48 hrs; assay type: functional; details: L1210, 48 h
L1210 [18] = test: Cytotoxicity against mouse L1210 cells at 0.01 ug/ml after 48 hrs; assay type: functional; details: L1210, 48 h
L1210 [19] = test: Cytotoxicity against mouse L1210 cells at 0.001 ug/ml after 48 hrs; assay type: functional; details: L1210, 48 h
P388 [20] = test: Antitumor activity against mouse P388 cells allografted in CDF1 mouse assessed as survival at 6 mg/kg, ip administered on day 1, 5 and 9; assay type: functional; details: route intraperitoneal
P388 [21] = test: Antitumor activity against mouse P388 cells allografted in CDF1 mouse assessed as survival at 4 mg/kg, ip administered on day 1, 5 and 9; assay type: functional; details: route intraperitoneal
P388 [22] = test: Antitumor activity against mouse P388 cells allografted in CDF1 mouse assessed as survival at 2.7 mg/kg, ip administered on day 1, 5 and 9; assay type: functional; details: route intraperitoneal
P388 [23] = test: Antitumor activity against mouse P388 cells allografted in CDF1 mouse assessed as survival at 1.8 mg/kg, ip administered on day 1, 5 and 9; assay type: functional; details: route intraperitoneal
P388 [24] = test: Antitumor activity against mouse P388 cells allografted in CDF1 mouse assessed as survival at 1.2 mg/kg, ip administered on day 1, 5 and 9; assay type: functional; details: route intraperitoneal
P388 [25] = test: Antitumor activity against mouse P388 cells allografted in CDF1 mouse assessed as survival at 0.8 mg/kg, ip administered on day 1, 5 and 9; assay type: functional; details: route intraperitoneal

T1 sequence (P0A7Z4 whole entry partner): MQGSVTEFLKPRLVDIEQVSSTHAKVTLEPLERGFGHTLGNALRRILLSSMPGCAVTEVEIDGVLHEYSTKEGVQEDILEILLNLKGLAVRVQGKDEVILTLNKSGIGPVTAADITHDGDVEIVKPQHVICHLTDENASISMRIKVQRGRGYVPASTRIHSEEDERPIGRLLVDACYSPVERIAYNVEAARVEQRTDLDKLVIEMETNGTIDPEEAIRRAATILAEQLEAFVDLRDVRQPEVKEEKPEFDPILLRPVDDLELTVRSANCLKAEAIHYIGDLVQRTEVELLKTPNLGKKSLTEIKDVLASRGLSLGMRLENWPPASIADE
T1 sequence (P0A800 2-91 partner limits assumed): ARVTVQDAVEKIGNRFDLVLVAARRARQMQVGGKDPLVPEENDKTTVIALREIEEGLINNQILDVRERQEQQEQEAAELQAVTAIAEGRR
T1 sequence (P0A8T7 whole entry partner): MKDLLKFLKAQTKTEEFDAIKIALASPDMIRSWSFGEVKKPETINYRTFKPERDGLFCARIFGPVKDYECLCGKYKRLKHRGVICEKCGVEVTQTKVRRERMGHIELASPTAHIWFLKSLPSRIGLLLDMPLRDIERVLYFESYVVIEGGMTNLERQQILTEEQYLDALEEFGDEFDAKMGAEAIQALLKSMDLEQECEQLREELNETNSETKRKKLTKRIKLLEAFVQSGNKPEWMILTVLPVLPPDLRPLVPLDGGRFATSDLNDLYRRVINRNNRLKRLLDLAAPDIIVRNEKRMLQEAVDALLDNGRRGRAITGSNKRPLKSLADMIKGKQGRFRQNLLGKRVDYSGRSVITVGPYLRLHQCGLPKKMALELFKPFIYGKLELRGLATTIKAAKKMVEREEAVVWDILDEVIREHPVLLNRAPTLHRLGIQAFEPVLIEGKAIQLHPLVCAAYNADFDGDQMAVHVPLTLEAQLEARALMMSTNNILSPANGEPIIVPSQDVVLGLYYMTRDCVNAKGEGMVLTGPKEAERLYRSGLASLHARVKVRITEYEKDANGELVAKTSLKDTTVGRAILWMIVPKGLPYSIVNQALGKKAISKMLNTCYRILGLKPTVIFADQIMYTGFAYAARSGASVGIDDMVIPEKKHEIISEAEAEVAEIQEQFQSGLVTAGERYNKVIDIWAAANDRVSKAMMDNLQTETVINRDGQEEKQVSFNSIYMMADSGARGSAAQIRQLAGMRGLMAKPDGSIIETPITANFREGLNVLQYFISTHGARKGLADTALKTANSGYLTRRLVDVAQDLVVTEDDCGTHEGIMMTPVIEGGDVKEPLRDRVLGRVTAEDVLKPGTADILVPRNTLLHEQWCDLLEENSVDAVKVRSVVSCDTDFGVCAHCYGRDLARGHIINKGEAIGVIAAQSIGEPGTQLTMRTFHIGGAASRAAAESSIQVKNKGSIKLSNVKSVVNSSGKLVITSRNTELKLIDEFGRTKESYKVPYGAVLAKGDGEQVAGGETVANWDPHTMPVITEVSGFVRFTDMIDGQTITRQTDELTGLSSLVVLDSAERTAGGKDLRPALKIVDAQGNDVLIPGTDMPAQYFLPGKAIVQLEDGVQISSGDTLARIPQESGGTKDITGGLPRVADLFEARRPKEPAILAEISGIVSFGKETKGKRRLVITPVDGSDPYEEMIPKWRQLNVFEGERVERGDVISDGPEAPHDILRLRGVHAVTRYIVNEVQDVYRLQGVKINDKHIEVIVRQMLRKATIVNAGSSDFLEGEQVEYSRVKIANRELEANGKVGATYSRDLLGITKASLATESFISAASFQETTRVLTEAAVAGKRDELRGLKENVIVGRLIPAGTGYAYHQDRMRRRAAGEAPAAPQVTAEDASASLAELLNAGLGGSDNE
T1 sequence (P0A8V2 whole entry): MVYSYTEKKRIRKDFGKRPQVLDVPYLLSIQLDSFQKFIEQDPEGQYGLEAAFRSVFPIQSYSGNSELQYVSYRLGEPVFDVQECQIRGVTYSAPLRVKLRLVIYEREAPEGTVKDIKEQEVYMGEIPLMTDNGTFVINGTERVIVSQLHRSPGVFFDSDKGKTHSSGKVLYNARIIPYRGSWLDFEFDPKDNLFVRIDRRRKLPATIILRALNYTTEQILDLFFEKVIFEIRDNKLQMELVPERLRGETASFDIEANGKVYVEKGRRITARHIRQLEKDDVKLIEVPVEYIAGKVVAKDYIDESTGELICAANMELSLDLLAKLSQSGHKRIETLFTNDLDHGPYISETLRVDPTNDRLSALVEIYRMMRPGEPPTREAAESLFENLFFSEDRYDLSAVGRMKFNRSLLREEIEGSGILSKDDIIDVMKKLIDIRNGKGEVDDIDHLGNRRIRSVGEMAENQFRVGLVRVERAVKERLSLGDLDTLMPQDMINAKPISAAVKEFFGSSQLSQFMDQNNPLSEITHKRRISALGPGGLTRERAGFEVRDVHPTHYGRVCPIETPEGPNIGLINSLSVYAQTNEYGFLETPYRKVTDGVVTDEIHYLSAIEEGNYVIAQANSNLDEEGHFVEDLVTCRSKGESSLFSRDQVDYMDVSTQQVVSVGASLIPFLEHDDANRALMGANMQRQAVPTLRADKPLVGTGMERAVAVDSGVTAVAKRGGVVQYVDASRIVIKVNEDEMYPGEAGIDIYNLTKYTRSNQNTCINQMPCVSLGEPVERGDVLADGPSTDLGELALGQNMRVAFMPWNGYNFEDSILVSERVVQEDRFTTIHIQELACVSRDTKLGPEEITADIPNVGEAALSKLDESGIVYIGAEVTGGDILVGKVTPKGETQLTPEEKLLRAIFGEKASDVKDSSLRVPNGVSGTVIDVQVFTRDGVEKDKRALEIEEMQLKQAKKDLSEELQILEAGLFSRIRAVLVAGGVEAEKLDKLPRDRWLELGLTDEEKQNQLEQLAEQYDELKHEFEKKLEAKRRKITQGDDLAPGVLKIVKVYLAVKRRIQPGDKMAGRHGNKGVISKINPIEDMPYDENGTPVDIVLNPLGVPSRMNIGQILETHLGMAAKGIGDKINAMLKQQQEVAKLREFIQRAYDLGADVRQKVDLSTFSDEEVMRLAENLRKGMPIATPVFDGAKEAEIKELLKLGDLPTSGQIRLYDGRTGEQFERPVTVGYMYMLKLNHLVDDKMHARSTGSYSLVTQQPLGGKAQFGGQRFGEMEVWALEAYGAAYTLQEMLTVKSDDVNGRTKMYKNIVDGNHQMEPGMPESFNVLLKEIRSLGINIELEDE

Row | Structure (SMILES) | Activity (Calf thymus DNA [1]) | ΔTm (Calf thymus DNA [2]) [°C] | Activity (Calf thymus DNA [3]) | inhibition [4] [%] | inhibition [5] [%] | inhibition [6] [%] | inhibition [7] [%] | inhibition [8] [%] | inhibition [9] [%] | inhibition [10] [%] | inhibition [11] [%] | inhibition at 10 µg/mL (L1210 [12]) [%] | inhibition at 5 µg/mL (L1210 [13]) [%] | inhibition at 1 µg/mL (L1210 [14]) [%] | inhibition at 0.5 µg/mL (L1210 [15]) [%] | inhibition at 0.1 µg/mL (L1210 [16]) [%] | inhibition at 0.05 µg/mL (L1210 [17]) [%] | inhibition at 0.01 µg/mL (L1210 [18]) [%] | inhibition at 0.001 µg/mL (L1210 [19]) [%] | Survival (P388 [20]) [days] | other results
1 | Cc1c2oc3c(C)ccc(C(=O)N[C@@H]4C(=O)N[C@H](C(C)C)C(=O)N5CCC[C@H]5C(=O)N(C)CC(=O)N(C)[C@@H](C(C)C)C(=O)O[C@@H]4C)c3nc-2c(C(=O)N[C@@H]2C(=O)N[C@H](C(C)C)C(=O)N3CCC[C@H]3C(=O)N(C)CC(=O)N(C)[C@@H](C(C)C)C(=O)O[C@@H]2C)c(NCCNC2CC(C)(C)N([O])C(C)(C)C2)c1=O | inactive | 2.8 | inactive | 88 | 91 | 81 | 78 | 61 | 56 | 43 | 42 | 99 | 98 | 71 | 62 | 41 | 15 | 0 | 0 | 8 | T/C (P388 [20]): 76%; Survival (P388 [21]): 25 days; T/C (P388 [21]): 238%; Survival (P388 [22]): 19 days; T/C (P388 [22]): 181%; Survival (P388 [23]): 17 days; T/C (P388 [23]): 162%; Survival (P388 [24]): 16 days; T/C (P388 [24]): 152%; Survival (P388 [25]): 19 days; T/C (P388 [25]): 181%
2 | Cc1c2oc3c(C)ccc(C(=O)N[C@@H]4C(=O)N[C@H](C(C)C)C(=O)N5CCC[C@H]5C(=O)N(C)CC(=O)N(C)[C@@H](C(C)C)C(=O)O[C@@H]4C)c3nc-2c(C(=O)N[C@@H]2C(=O)N[C@H](C(C)C)C(=O)N3CCC[C@H]3C(=O)N(C)CC(=O)N(C)[C@@H](C(C)C)C(=O)O[C@@H]2C)c(NC2CC(C)(C)N([O])C(C)(C)C2)c1=O | inactive | 1.7 | inactive | 78 | 77 | 62 | 57 | 41 | 33 | 37 | 21 | 98 | 96 | 57 | 39 | 21 | 10 | 0 | 0 | 29 | T/C (P388 [20]): 276%; Survival (P388 [21]): 26 days; T/C (P388 [21]): 248%; Survival (P388 [22]): 19 days; T/C (P388 [22]): 181%; Survival (P388 [23]): 20 days; T/C (P388 [23]): 190%; Survival (P388 [24]): 17 days; T/C (P388 [24]): 162%; Survival (P388 [25]): 17 days; T/C (P388 [25]): 162%
3 | Cc1c2oc3c(C)ccc(C(=O)N[C@@H]4C(=O)N[C@H](C(C)C)C(=O)N5CCC[C@H]5C(=O)N(C)CC(=O)N(C)[C@@H](C(C)C)C(=O)O[C@@H]4C)c3nc-2c(C(=O)N[C@@H]2C(=O)N[C@H](C(C)C)C(=O)N3CCC[C@H]3C(=O)N(C)CC(=O)N(C)[C@@H](C(C)C)C(=O)O[C@@H]2C)c(NCCCNC2CC(C)(C)N([O])C(C)(C)C2)c1=O | Active | 3.5 | Active | 79 | 62 | 49 | 32 | 78 | 52 | 28 | 22 | 98 | 69 | 45 | 33 | 16 | 0 | 0 | 0 | 29 | T/C (P388 [20]): 171%; Survival (P388 [21]): 18 days; T/C (P388 [21]): 171%; Survival (P388 [22]): 18 days; T/C (P388 [22]): 181%; Survival (P388 [23]): 19 days; T/C (P388 [23]): 143%; Survival (P388 [24]): 15 days; T/C (P388 [24]): 143%; Survival (P388 [25]): 15 days

— ChEMBL document CHEMBL3227999, “Synthesis and biological properties of N2-substituted spin-labeled analogues of actinomycin D” (J Med Chem, 1979)
